# Measurements published in patent US20260242419A1, “A CYCLIC PEPTIDE FOR TRAPPING INTERLEUKIN-1 BETA” (Merck Sharp & Dohme LLC, priority 2023, published 2026).
# pIC50: −log10 of the molar value. Starred links: 1 amine or outer side, 2 acyl side, 3 side chain; linkers in the order of their positions; H or OH if unused. Non-standard residues stand in square brackets, D forms with d. Residues, ends and D or L forms follow the SMILES beside them. Phe(4-(4-Ac-piperazinyl)) = CC(=O)N1CCN(c2ccc(C[C@H](N)C(=O)O)cc2)CC1; dPro(4R-(4-pyridylmethyl)) = O=C(O)[C@H]1C[C@@H](Cc2ccncc2)CN1; dPro(3S-(4-Br-benzyl)) = O=C(O)[C@@H]1NCC[C@@H]1Cc1ccc(Br)cc1; Trp(βS-Me,4-F) = C[C@@H](c1c[nH]c2cccc(F)c12)[C@H](N)C(=O)O; Bip(4'-COOH) = N[C@@H](Cc1ccc(-c2ccc(C(=O)O)cc2)cc1)C(=O)O; X18 = Cn1ccnc1-c1ccc(C[C@H]2CCN([*:1])[C@H]2C(=O)[*:2])cc1; Ala(1-bicyclo(1.1.1)pentyl) = N[C@@H](CC12CC(C1)C2)C(=O)O; X21 = O=C(O)c1ccc(-c2ccc(C[C@H](N[*:1])C(=O)[*:2])cn2)cc1; dPro(4R-Bzl(4-F)) = O=C(O)[C@H]1C[C@@H](Cc2ccc(F)cc2)CN1; Ala(pyrimidin-5-yl) = N[C@@H](Cc1cncnc1)C(=O)O; Phe(4-CONH2) = NC(=O)c1ccc(C[C@H](N)C(=O)O)cc1; Phe(4-COOH) = N[C@@H](Cc1ccc(C(=O)O)cc1)C(=O)O; Pro(cis-4-F) = O=C(O)[C@@H]1C[C@H](F)CN1; Ala(4-THP) = N[C@@H](CC1CCOCC1)C(=O)O; AEF = NCCOc1ccc(C[C@H](N)C(=O)O)cc1; cisHyp = O=C(O)[C@@H]1C[C@H](O)CN1; d(αMeD) = C[C@@](N)(CC(=O)O)C(=O)O; 4Pal = N[C@@H](Cc1ccncc1)C(=O)O; d(αMeS) = C[C@@](N)(CO)C(=O)O; αMeK = C[C@](N)(CCCCN)C(=O)O; Dab = NCC[C@H](N)C(=O)O; Aib = CC(C)(N)C(=O)O
# Molecular target: T1, IL-1β (Homo sapiens, UniProt P01584)
# T1 construct: purchased BioLegend 579404
# T1 sequence (P01584 117-269): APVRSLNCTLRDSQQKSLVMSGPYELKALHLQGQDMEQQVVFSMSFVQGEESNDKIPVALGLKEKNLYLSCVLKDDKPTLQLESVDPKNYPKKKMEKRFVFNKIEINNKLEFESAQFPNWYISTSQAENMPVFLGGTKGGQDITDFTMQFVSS
# Test: IL-6 assay in MRC5 cells: inhibition of IL-1β induced IL-6 secretion (AlphaLISA)
# Format: cell-based
# Conditions: inhibition of IL-1β induced IL-6 secretion in MRC5 cells; read-out: MRC5 IC50
# In short: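 Compound was pre-incubated 1 h at ambient temperature with recombinant human IL-1β at 2λ EC80 before adding human lung fibroblast MRC5 cells (3000/well) in EMEM with 0.025% BSA. After overnight culture at 37 °C, 5% CO2, secreted IL-6 in conditioned medium was measured by AlphaLISA; IC50 from 4-parameter logistic fits.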
row,Structure (SMILES),pIC50
1,"CC(=O)N1CCN(c2ccc(C[C@@H]3NC(=O)[C@H]4C[C@@H](Cc5ccc(F)cc5)CN4C(=O)CNC(=O)[C@H](CCN)NC(=O)[C@H](CCC(N)=O)NC(=O)[C@H](Cc4cncnc4)NC(=O)C(C)(C)NC(=O)[C@H](Cc4c[nH]c5ccccc45)NC(=O)[C@H](CO)NC(=O)C(C)(C)NC(=O)[C@H]([C@@H](C)c4c[nH]c5cccc(F)c45)NC(=O)[C@@H]4C[C@H](O)CN4C(=O)CNC(=O)[C@H](Cc4ccc(C(=O)O)cc4)NC(=O)[C@H](Cc4ccncc4)NC3=O)cc2)CC1 [Example 196] (cyclo([Phe(4-(4-Ac-piperazinyl))][4Pal][Phe(4-COOH)]G[cisHyp][Trp(βS-Me,4-F)][Aib]SW[Aib][Ala(pyrimidin-5-yl)]Q[Dab]G[dPro(4R-Bzl(4-F))]))",10.42
2,"C[C@@H](c1c[nH]c2cccc(F)c12)[C@@H]1NC(=O)[C@@H]2C[C@H](F)CN2C(=O)CNC(=O)[C@H](Cc2ccc(C(=O)O)cc2)NC(=O)[C@H](CC23CC(C2)C3)NC(=O)[C@H](Cc2ccc(-c3ccc(C(=O)O)cc3)cc2)NC(=O)[C@H]2C[C@@H](Cc3ccc(F)cc3)CN2C(=O)CNC(=O)[C@H](CCN)NC(=O)[C@H](CCC(N)=O)NC(=O)[C@H](CC2CCOCC2)NC(=O)[C@](C)(CCCCN)NC(=O)[C@H](Cc2c[nH]c3ccccc23)NC(=O)[C@H](CO)NC(=O)C(C)(C)NC1=O [Example 146] (cyclo([Bip(4'-COOH)][Ala(1-bicyclo(1.1.1)pentyl)][Phe(4-COOH)]G[Pro(cis-4-F)][Trp(βS-Me,4-F)][Aib]SW[αMeK][Ala(4-THP)]Q[Dab]G[dPro(4R-Bzl(4-F))]))",10.47
3,"C[C@@H](c1c[nH]c2cccc(F)c12)[C@@H]1NC(=O)[C@@H]2C[C@H](F)CN2C(=O)CNC(=O)[C@H](Cc2ccc(C(=O)O)cc2)NC(=O)[C@H](Cc2ccncc2)NC(=O)[C@H](Cc2ccc(-c3ccc(C(=O)O)cc3)nc2)NC(=O)[C@H]2C[C@@H](Cc3ccc(F)cc3)CN2C(=O)CNC(=O)[C@H](CCN)NC(=O)[C@H](CCC(N)=O)NC(=O)[C@H](Cc2cncnc2)NC(=O)C(C)(C)NC(=O)[C@H](Cc2c[nH]c3ccccc23)NC(=O)[C@H](CCC(=O)O)NC(=O)C(C)(C)NC1=O [Example 26] (cyclo([X21][4Pal][Phe(4-COOH)]G[Pro(cis-4-F)][Trp(βS-Me,4-F)][Aib]EW[Aib][Ala(pyrimidin-5-yl)]Q[Dab]G[dPro(4R-Bzl(4-F))]))",10.46
4,"CC(=O)NCCOc1ccc(C[C@@H]2NC(=O)[C@H]3C[C@@H](Cc4ccncc4)CN3C(=O)CNC(=O)[C@H](CCN)NC(=O)[C@H](CCC(N)=O)NC(=O)[C@H](CC3CCOCC3)NC(=O)[C@@](C)(CO)NC(=O)[C@H](Cc3c[nH]c4ccccc34)NC(=O)[C@H](CO)NC(=O)C(C)(C)NC(=O)[C@H]([C@@H](C)c3c[nH]c4cccc(F)c34)NC(=O)[C@@H]3C[C@H](F)CN3C(=O)CNC(=O)[C@H](Cc3ccc(C(N)=O)cc3)NC(=O)[C@H](Cc3ccncc3)NC2=O)cc1 [Example 378] (cyclo([AEF](Ac)[4Pal][Phe(4-CONH2)]G[Pro(cis-4-F)][Trp(βS-Me,4-F)][Aib]SW[d(αMeS)][Ala(4-THP)]Q[Dab]G[dPro(4R-(4-pyridylmethyl))]))",10.37

# These reach a higher pIC50. Values come first.
row,pIC50,Structure (SMILES)
1,10.85,"C[C@@H](c1c[nH]c2cccc(F)c12)[C@@H]1NC(=O)[C@@H]2C[C@H](F)CN2C(=O)CNC(=O)[C@H](Cc2ccc(C(=O)O)cc2)NC(=O)[C@H](Cc2ccncc2)NC(=O)[C@H](Cc2ccc(-c3ccc(C(=O)O)cc3)cc2)NC(=O)[C@H]2[C@@H](Cc3ccc(Br)cc3)CCN2C(=O)CNC(=O)[C@H](CCN)NC(=O)[C@H](CCC(N)=O)NC(=O)[C@H](Cc2cncnc2)NC(=O)C(C)(C)NC(=O)[C@H](Cc2c[nH]c3ccccc23)NC(=O)[C@H](CCC(=O)O)NC(=O)C(C)(C)NC1=O [Example 51] (cyclo([4Pal][Phe(4-COOH)]G[Pro(cis-4-F)][Trp(βS-Me,4-F)][Aib]EW[Aib][Ala(pyrimidin-5-yl)]Q[Dab]G[dPro(3S-(4-Br-benzyl))][Bip(4'-COOH)]))"
2,11.05,"C[C@@H](c1c[nH]c2cccc(F)c12)[C@@H]1NC(=O)[C@@H]2C[C@H](F)CN2C(=O)CNC(=O)[C@H](Cc2ccc(C(=O)O)cc2)NC(=O)[C@H](Cc2ccncc2)NC(=O)[C@H](Cc2ccc(-c3ccc(C(=O)O)cc3)cc2)NC(=O)[C@H]2C[C@@H](Cc3ccc(F)cc3)CN2C(=O)CNC(=O)[C@H](CCN)NC(=O)[C@H](CCC(N)=O)NC(=O)[C@H](Cc2cncnc2)NC(=O)[C@@](C)(CC(=O)O)NC(=O)[C@H](Cc2c[nH]c3ccccc23)NC(=O)[C@H](CO)NC(=O)C(C)(C)NC1=O [Example 128] (cyclo([Bip(4'-COOH)][4Pal][Phe(4-COOH)]G[Pro(cis-4-F)][Trp(βS-Me,4-F)][Aib]SW[d(αMeD)][Ala(pyrimidin-5-yl)]Q[Dab]G[dPro(4R-Bzl(4-F))]))"
3,10.74,"C[C@@H](c1c[nH]c2cccc(F)c12)[C@@H]1NC(=O)[C@@H]2C[C@H](F)CN2C(=O)CNC(=O)[C@H](Cc2ccc(C(=O)O)cc2)NC(=O)[C@H](Cc2ccncc2)NC(=O)[C@H](Cc2ccc(-c3ccc(C(=O)O)cc3)cc2)NC(=O)[C@H]2[C@@H](Cc3ccc(-c4nccn4C)cc3)CCN2C(=O)CNC(=O)[C@H](CCN)NC(=O)[C@H](CCC(N)=O)NC(=O)[C@H](Cc2cncnc2)NC(=O)C(C)(C)NC(=O)[C@H](Cc2c[nH]c3ccccc23)NC(=O)[C@H](CCC(=O)O)NC(=O)C(C)(C)NC1=O [Example 63] (cyclo([Bip(4'-COOH)][4Pal][Phe(4-COOH)]G[Pro(cis-4-F)][Trp(βS-Me,4-F)][Aib]EW[Aib][Ala(pyrimidin-5-yl)]Q[Dab]G[X18]))"
